Where “and” joins values, the source holds several entries; their conditions need not be identical. Equal values may be shown once. Entries after “also recorded” stand apart in the source; their conditions may differ.
How the values were obtained:
Assay type in all cases: cell-based, human
aP2 gene expression [1] = assay: Real-time PCR, aP2 gene expression in NHBE cells; details: for Effect on aP2 expression: NHBE (HBE) cells, stimuli for 18 h, real-time PCR (FIG. 2); for Fold-Change aP2 gene expression (real-time PCR): NHBE cells, 10 ng/ml cytokine, 18 h, vs unstimulated, mean of two RNA sets used in arrays
Protocol: (§1) When NHBE cells were 80% confluent and between passage 7 and 8, they were washed in PBS (Gibco) and starved for 24 h in Clonetics bronchial epithelial cell basal medium (BEBM) containing 0.1% w/v BSA.
(§2) Total RNA was isolated from cells using the RNeasy Total RNA Isolation Kit (Qiagen, Chatswort, Calif.) or Trizol (Invitrogen, CA) as per the manufacturer's instructions.
(§3) cDNA was made using Reverse-IT RTase Blend Kit (ABgene, UK) or Avian myeloblastosis virus Reverse Transcriptase (Promega, Madison, Wis.) according to manufacturer's instructions. Oligo-p(dt)15 primer (Roche Molecular Biochemicals) was used at 1 μM in both cDNA preparation methods. Following cDNA synthesis, 1 μl of cDNA template was used for each PCR. Real-time PCR was conducted using Light Cycler-FastStart DNA Master SYBR Green I kit (Roche Molecular Biochemicals) according to manufacturer's specifications using 2 mM MgCl2 and 1 μM primers. Human aP2 forward and reverse primers and FABP-5 forward and primers were designed from Genbank sequences using Primer3 software (Rozen and Skaletsky, Methods Mol. Biol. 132: 365-386, 2000):
(§4) After an initial denaturation for 10 min at 95° C., the samples were run for 40 cycles at 95° C. (15 s), 63° C. (5 s), and 72° C. (10 s). At the end of each cycle, the fluorescence was measured in a single step in channel F1. After the 40th cycle, the specimens were heated to 95° C. and cooled to 65° C. for 15 s. All heating and cooling steps were performed with a slope of 20° C./sec. The temperature was then raised to 95° C. at a rate of 0.1° C./sec and fluorescence was measured continuously (channel F1) to obtain a melting curve for the PCR products. Each gene was normalized to a housekeeping gene GAPDH before fold change was calculated (using crossing point values) to account for variations between different samples. The aP2 PCR product was confirmed by size on a 2% w/v agarose gel and by sequencing at Sydney University Prince Alfred Macromolecular Analysis Centre, NSW, Australia.
Using the same RNA samples as were used for the microarray experiments, aP2 gene expression was analysed using real-time PCR. […] Data are the mean from the two sets of RNA that were used in the array experiments.

aP2 gene expression [2] = assay: Real-time PCR, aP2 gene expression in NHBE cells; details: NHBE (HBE) cells, subsequent experiment
FABP-5 gene expression [3] = assay: Real-time PCR, FABP-5 (mal1) gene expression in NHBE cells; details: for Effect on FABP-5 (mal1) expression, real-time PCR: NHBE (HBE) cells, 10 ng/ml (FIG. 3)
Protocol: as §1, §2, §3, §4

aP2 expression = aP2 expression in THP-1 cells; details: 10 ng/ml IL-4, 10 ng/ml IL-13 or 28 ng/ml IFN-γ (FIG. 6)
Protocol: FIG. 6 is a graphical representation showing aP2 expression in THP-1 cells stimulated with (A) 10 ng/ml IL-4, 10 ng/ml IL-13 or 28 ng/ml IFN-γ or (B) 50 ng/ml PMA. The data are mean±SEM from three independent experiments.
To address this issue, the effect of IL-4, IL-13 and IFN-γ on expression of aP2 in the human monocyte cell line THP-1 was examined.

FABP-5 gene expression [4] = assay: Microarray, FABP-5 gene expression in synovial fibroblasts (RA/OA synoviocytes); set-up: key: I, increased; D, decreased; NC, no change; details: 10 ng/ml, 4 h
aP2 gene expression [5] = assay: Affymetrix U95A microarray, aP2 gene expression in stimulated NHBE cells; set-up: key to Regulation of aP2 gene expression: I, increased; D, decreased; NC, no change; details: 18 h; for Fold-Change aP2 gene expression: NHBE cells, 10 ng/ml cytokine, vs unstimulated cells, mean of both micro-array experiments; for Fold change aP2 gene expression / Regulation of aP2 gene expression: NHBE, 10 ng/ml, vs ctrl, individual array comparisons
Protocol: NHBE primary cell lines were purchased from Clonetics (San Diego, Calif.). Both NHBE cell lines, lot 8F1142 and 7F1482, were isolated […]. NHBE cells were maintained in Clonetics bronchial epithelial growth media (BEGM), which included supplements of 52 μg/ml bovine pituitary extract, 0.5 μg/ml hydrocortisone, 0.5 μg/ml human recombinant epidermal growth factor, 0.5 μg/ml epinephrine, 10 μg/ml transferrin, 5 μg/ml insulin, 0.1 μg/ml retinoic acid, 6.5 μg/ml triiodothryonine, 50 μg/ml gentamycin and 50 μg/ml amphotericin B (Clonetics). Medium was replaced every three to four days. When confluent, cells were subcultured at a ratio of 1:3.
as §1
A preliminary time course experiment in IL-4 and IL-13 stimulated NHBE identified 18 h as a time point associated with strong gene regulation and this time point was selected for subsequent analysis. Gene expression in unstimulated- and IL-4- and IL-13-stimulated NHBE was measured using Affymetrix U95A Gene Chips. The experiment was performed twice, using two independent NHBE lines. One novel finding was increased expression of the adipocyte gene aP2 in the cytokine stimulated NHBE cells (Table 3).
NHBE cells were stimulated with 10 ng/ml IL-4 or 10 ng/ml IL-13. After 18 h, gene expression in these cells, and in unstimulated NHBE cells, was analysed using Affymetrix U95A chips. The fold-change in gene expression following cytokine stimulation compared to unstimulated NHBE cells is shown. Data are the mean of both micro-array experiments.
(§5) Depending on the quantity of RNA available, cRNA was prepared according to the GeneChip Expression Analysis Technical Manual (Array experiment 1; Affymetrix, Santa Clara, Calif.) or the cRNA methods published in Baugh et al., Nucleic Acids Res. 29(5): E29, 2001 (Array experiment 2). The GeneChip Expression Analysis protocol involved cDNA synthesis from 20 μg of total RNA using a poly(T) primer containing a T7 RNA polymerase promoter (Geneworks, Australia):
(§6) cRNA was transcribed from cDNA and biotinylated using the BioArray High Yield RNA Transcript Labeling Kit (Enzo Diagnostics, Farmingdale, N.Y.). Twenty micrograms of cRNA was fragmented by heating at 94° C. for 35 min in fragmentation buffer (40 mM Tris acetate (pH 8.1), 125 mM KOAc, 30 mM MgOAc) prior to hybridization. For the small-scale cRNA amplification (Baugh et al., 2001, supra), cDNA synthesis volumes were different from the GeneChip Expression Analysis Technical Manual but reaction component concentrations, incubation times and temperatures were conserved. Five hundred nanograms of RNA was used and 15 μg cRNA was fragmented prior to hybridization.
(§7) Hybridization cocktails were then made by adding fragmented cRNA, control cRNAs, grid alignment oligonucleotides and blocking reagents. These mixtures were hybridised overnight (˜16 h) to individual Test3 (Affymetrix) arrays at 45° C., under constant rotation at 60 rpm. Washing and staining of the hybridized arrays were performed by an Affymetrix Fluidics Station, according to the manufacturer's protocols. Fluorescent signals were measured on the arrays using the Agilent GeneArray Laser Scanner and gene transcript levels were determined and scaled to 150 using algorithms in MicroArray Analysis Suite Software 5.0 (Affymetrix). For each array experiment, the hybridization cocktails met the test three criteria (background less then 150, GAPDH and β-actin 3′/5′ ratios less then three and similar scaling factors between samples), and were used to probe Affymetrix U95A GeneChips. Relative mRNA expression levels on the IL-4 and IL-13 stimulated NHBE arrays were expressed as plus or minus fold changes when compared to the control NHBE array.
Regulation of aP2 gene expression was examined for all comparison arrays in which aP2 expression was detected. […]

FABP-5 gene expression [6] = assay: Microarray, FABP-5 gene expression in NHBE cells; set-up: key to Regulation of FABP-5 gene expression: I, increased; D, decreased; NC, no change; details: for Effect on FABP-5 (mal1) expression, microarray: NHBE (HBE) cells; for Fold change FABP-5 gene expression / Regulation of FABP-5 gene expression: NHBE, 10 ng/ml, 18 h, vs ctrl
Protocol: as §1, §5, §6, §7
Positive/negative fold change indicates greater/lesser gene expression in the first-named array, respectively. I, increased; D, decreased; NC, no change. Where the same type of array comparison is listed more than once, this represents repeat experiments.

aP2 protein expression = assay: Immunofluorescent staining of aP2 protein in NHBE cells; details: NHBE (HBE) cells, 10 ng/ml, 24 h
Protocol: NHBE cells were grown in chamber slides and treated with culture medium alone, or with medium supplemented with 10 ng/ml IL-4 or 10 ng/ml IL-13. After 24 h, the culture medium was removed and the cells were air-dried for 30 min. The cells were fixed in 1% v/v paraformaldehyde for 20 min at room temperature. The slides were washed in PBS and the cells were permeabilised in 70% v/v ethanol at −20° C. for 20 min. The cells were washed in PBS-Triton for 5 min, and then blocked for 60 min with 10% v/v normal goat serum in 2% v/v BSA/Tris-buffered saline (TBS). The normal goat serum was removed and […] (1:1000 dilution in 2% BSA/TBS) or rabbit isotype control (1:4 dilution; Zymed) was added. The slides were incubated overnight at room temperature, washed 3×5 min in TBS-Triton (TBS-T), and incubated with secondary Ab (TRITC-conjugated anti-rabbit Ig; dilution 1:100) for 1 h at room temperature. The slides were washed in TBS-T for 5 min, and cover-slipped after the addition of Vectashield. The slides were examined on a confocal microscope.

FABP-5 gene expression [7] = assay: Microarray, FABP-5 gene expression in bronchial smooth muscle cells (BSMC); set-up: key to Regulation of FABP-5 gene expression: I, increased; D, decreased; NC, no change; details: 10 ng/ml, 18 h, vs ctrl

## CCCCCCCCCCCCCC(=O)O[C@@H]1[C@@H](C)[C@@]2(O)[C@@H](C=C(CO)C[C@]3(O)C(=O)C(C)=C[C@@H]23)[C@@H]2C(C)(C)[C@]12OC(C)=O [PMA, phorbol myristate acetate, reference compound]
aP2 gene expression [1]
  Effect on aP2 expression: slight down-regulation; also recorded: slight downregulation

## Cc1cccc(Nc2cc(Cl)nc(SCC(=O)O)n2)c1C [WY14643]
aP2 gene expression [2]
  Effect on aP2 expression: little or no effect

## IFN-γ: prototypic type 1 cytokine, 28 ng/ml
aP2 gene expression [1]
  Effect on aP2 expression: strongly down-regulated
aP2 gene expression [1]; listed as IFNg
  Effect on aP2 expression: down-regulated
aP2 gene expression [1]; listed as IFNγ
  Effect on aP2 expression: strongly downregulated
FABP-5 gene expression [3]; HBE cells, summary statement, method not stated
  Effect on mal1 expression: down-regulated
aP2 expression
  Effect on aP2 expression: reduced expression

## IL-1: cytokine Interleukin (IL)-1β used as stimulus, 10 ng/ml
aP2 gene expression [1]
  Effect on aP2 expression: no effect
FABP-5 gene expression [4]; RA synoviocytes, vs RA ctrl
  Regulation of FABP-5 gene expression: NC

## IL-4: allergy-associated type-2 cytokine used as stimulus, 10 ng/ml (BD)
aP2 gene expression [5]
  Fold-Change aP2 gene expression: 33.4
  Fold change aP2 gene expression: 48.5 and 18.4
  Regulation of aP2 gene expression: I
aP2 gene expression [1]
  Fold-Change aP2 gene expression (real-time PCR): 65
FABP-5 gene expression [6]
  Effect on FABP-5 (mal1) expression, microarray: mildly up-regulated
  Fold change FABP-5 gene expression: 1.4 and 2
  Regulation of FABP-5 gene expression: I
FABP-5 gene expression [4]; RA synoviocytes, vs RA ctrl
  Regulation of FABP-5 gene expression: NC
FABP-5 gene expression [3]
  Effect on FABP-5 (mal1) expression, real-time PCR: up-regulated; also recorded: upregulated
aP2 protein expression
  Intensity of aP2 staining vs unstimulated cells: considerably greater
  Nuclear localisation of aP2: significant nuclear localisation
aP2 expression
  Effect on aP2 expression: stimulated aP2 expression

## IL-6: cytokine stimulus, 5 ng/ml (BD)
aP2 gene expression [1]
  Effect on aP2 expression: no effect

## IL-13: allergy-associated type-2 cytokine used as stimulus, 10 ng/ml (BD)
aP2 gene expression [5]
  Fold-Change aP2 gene expression: 31.8
  Fold change aP2 gene expression: 45.3 and 18.4
  Regulation of aP2 gene expression: I
aP2 gene expression [1]
  Fold-Change aP2 gene expression (real-time PCR): 56
FABP-5 gene expression [6]
  Effect on FABP-5 (mal1) expression, microarray: mildly up-regulated
  Fold change FABP-5 gene expression: 1.5
  Regulation of FABP-5 gene expression: I and NC
FABP-5 gene expression [7]
  Fold change FABP-5 gene expression: 1.7
  Regulation of FABP-5 gene expression: NC and I
FABP-5 gene expression [3]
  Effect on FABP-5 (mal1) expression, real-time PCR: up-regulated; also recorded: upregulated
aP2 protein expression
  Intensity of aP2 staining vs unstimulated cells: considerably greater
  Nuclear localisation of aP2: significant nuclear localisation
aP2 expression
  Effect on aP2 expression: stimulated aP2 expression

## TNFα
aP2 gene expression [1]
  Effect on aP2 expression: no effect
FABP-5 gene expression [4]; OA synoviocytes, vs OA ctrl
  Regulation of FABP-5 gene expression: NC
FABP-5 gene expression [4]; RA synoviocytes, vs RA ctrl
  Regulation of FABP-5 gene expression: NC

B1: IL-10: cytokine stimulus, 10 ng/ml (BD) (protein, UniProt P22301 19-178, looked up)
Interleukin-10: SPGQGTQSENSCTHFPGNLPNMLRDLRDAFSRVKTFFQMKDQLDNLLLKESLLEDFKGYLGCQALSEMIQFYLEEVMPQAENQDPDIKAHVNSLGENLKTLRLRLRRCHRFLPCENKSKAVEQVKNAFNKLQEKGIYKAMSEFDIFINYIEAYMTMKIRN
aP2 gene expression [1]
  Effect on aP2 expression: no effect

Source: patent publication US20070043512A1, “Therapeutic and prophylactic compositions and uses therefor” (priority 2003, published 2007)
